Strand notation (5' to 3'): a small letter for the sugar, then the base; units joined by * are phosphorothioate-linked, units joined directly phosphodiester-linked; [ ] holds rarer units or linkages, { } end groups; capitals alone tell only the bases. [RhoB] = phosphoramidate linkage P=N-S(O)2-rhodamine-B replacing P=O; d = 2'-deoxy (DNA); {P} = phosphate
Experiments:
factor V DNA = assay: Real time PCR of factor V DNA with fluorescein/lissamine FRET hybridization probes; type: biochemical; settings: LIGHTCYCLER 2.0, 610 nm channel, unmodified fluorescein donor probe
Procedure: Primers were used in combination with a pair of fluorescein/lissamine FRET hybridization probes where Lissamine (rhodamineB) acted as a FRET acceptor. Quantification curves were recorded and the cp value was determined as a function of the concentration of the target nucleic acid.
(§1) A teal time PCR and melting curve analysis were carried out according to example 6 for the amplification of 10^4 and 10^6 copies of a factor V DNA fragment. A fluorescein donor probe according to example 6 (SEQ ID NO: 4) which was not further modified and a FRET acceptor probe according to example 7b (SEQ ID NO: 3) were used for this.
The fluorescence signal was measured in the 610 nm detection channel. The 610/530 background correction mode was used to normalize the raw signal. A cp value of 22 was determined for 10^6 copies and a cp of 26 was determined for 10^4 copies.

[1] = system: factor V DNA fragment, mutant; assay: Melting curve analysis with lissamine acceptor probe, mutant; type: binding; settings: 10^6 copies
Procedure: as §1
(§2) The melting point for the wild type was determined as 64.69° C. and 56.24° C. was determined as the melting point for the mutant (10^6 copies).

[2] = system: factor V DNA fragment, wild type; assay: Melting curve analysis with lissamine acceptor probe, wild type; type: binding; settings: 10^6 copies
Procedure: as §1, §2

human Factor V DNA = assay: Real time PCR with modified primers (crossing point); type: biochemical; settings: LIGHTCYCLER 1.2, primer combinations SEQ ID NO: 1 / SEQ ID NO: 2, 640 nm channel
Procedure: A quantitative real time PCR of human Factor V DNA was carried out on a LIGHTCYCLER 1.2 instrument (Roche Diagnostics GmbH) in order to analyse the effect of phosphate mimetics on primer elongation. The P═N-pPh-NAc mimetic which was introduced at different positions of a primer pair used for amplification of human Factor V DNA. The modified primers were, synthesized according to example 4. Purification was done by the Reversed Phase chromatography of example 3 in the Trityl on mode. Detritylation was performed by treating with 80% acetic acid for 20 min.
This primers were used in combination with a pair of fluorescein/LIGHTCYCLER Red 640 FRET hybridization probes according to example 6. The Fluorescein probe and the 5′ LIGHTCYCLER Red 640 probe (SEQ ID NO: 3 and 4) were kept constant. Various combinations of modified and unmodified primers were tested. As reference unmodified primers were used. The effect on the crossing point which is a measure for the amplification efficiency was evaluated.
The real time monitoring was carried out over 45 cycles using the 2nd derivative threshold method in which, the fluorescence signal was measured in a detection channel that is specific for the LIGHTCYCLER Red 640 emission (at 640 nm) and the arithmetic background correction mode was used to normalize the initial signal.
The absolute fluorescence signals are measured as above in the 640 nm channel and subsequently the first derivative was calculated from this. The crossing points are shown in the following table as a measure for the amplification efficiency when using different modified primers.

In the case of “FRET acceptor probe according to example 7b: SEQ ID NO: 3 FRET acceptor probe; p* = P = NS(O)2-rhodamine-B (DNA dA[RhoB]dGdGdGdAdTdCdTdGdCdTdCdTdTdAdCdAdGdAdTdTdAdGdAdAdGdTdAdGdTdCdCdTdAdTdT-{P})”, the cp value (factor V DNA; 10^4 copies) is reported as 26, the cp value (factor V DNA; 10^6 copies) is reported as 22 and the “melting point for the mutant” value [1] is reported as 56.24 °C. For the same substance, the “melting point for the wild type” value [2] was 64.69 °C.
For “5′ GAGAGACATCGCCTCTGGGCTA / 5′ TGTTATCACACTGGTGCTAA: unmodified primer pair SEQ ID NO: 1 and 2, used as reference (DNA 1 GAGAGACATCGCCTCTGGGCTA; DNA 2 TGTTATCACACTGGTGCTAA; unmodified DNA) [reference compound]”, the “Cp (crossing point, measure for the amplification efficiency)” value (human Factor V DNA) was 20.36.
